System: apyrase
Experiment: Screen for apyrase inhibitors (Method 1, in vitro phosphate-release absorbance assay)
Type: biochemical
Conditions: inhibitor conc at 1 mM stock, 1 hr room temperature, absorbance 630 nm; rounded average of two assay results
Method in brief: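 Phosphate-release colorimetric assay (Windsor method) in 60 mM Hepes, 3 mM MgCl2, 3 mM CaCl2, 3 mM ATP, pH 6.5, with compound or DMSO control added. Released phosphate developed with ammonium molybdate and ascorbic acid/TCA, then stopped with citrate/acetic acid.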

Compound	% Inhibition of Apyrase [%]
O=C(/C=C/c1cccc(Cl)c1)Nc1cccc(S(=O)(=O)Nc2ccc(Br)cc2)c1 [I-329, (E)-N-(3-(N-(4-bromophenyl)sulfamoyl)phenyl)-3-(3-chlorophenyl)acrylamide]	65
COc1ccc(C(=O)Nc2cccc(S(=O)(=O)Nc3ccc(Br)cc3)c2)cc1OC [I-333, N-(3-(N-(4-bromophenyl)sulfamoyl)phenyl)-3,4-dimethoxybenzamide]	48
Cn1cc(C(=O)Nc2cccc(S(=O)(=O)Nc3ccc(Br)cc3)c2)cn1 [I-335, N-(3-(N-(4-bromophenyl)sulfamoyl)phenyl)-1-methyl-1H-pyrazole-4-carboxamide]	30
O=C(Nc1cccc(NS(=O)(=O)c2c(Br)cc3[nH]c(=O)oc3c2Cl)c1)c1ccc(Br)cc1 [I-337, 4-bromo-N-(3-((5-bromo-7-chloro-2-oxo-2,3-dihydrobenzo[d]oxazole)-6-sulfonamido)phenyl)benzamide]	73
O=C(Nc1cccc(NS(=O)(=O)c2ccc(Cl)cc2)c1)c1ccc2[nH]nnc2c1 [I-340, N-(3-((4-chlorophenyl)sulfonamido)phenyl)-1H-benzo[d][1,2,3]triazole-5-carboxamide]	65
O=C(Nc1cccc(NS(=O)(=O)c2ccc(Cl)cc2)c1)c1ccc2[nH]cnc2c1 [I-342, N-(3-((4-chlorophenyl)sulfonamido)phenyl)-1H-benzo[d]imidazole-5-carboxamide]	63
O=C(Nc1cccc(NS(=O)(=O)c2ccc(Cl)cc2)c1)c1ccccc1 [I-344, N-(3-((4-chlorophenyl)sulfonamido)phenyl)benzamide]	56
Cc1cccc(C(=O)Nc2cccc(NS(=O)(=O)c3ccccc3)c2)c1[N+](=O)[O-] [I-345, 3-methyl-2-nitro-N-(3-(phenylsulfonamido)phenyl)benzamide]	53
Cc1ccc(C(=O)Nc2cccc(NS(=O)(=O)c3ccccc3)c2)cc1[N+](=O)[O-] [I-347, 4-methyl-3-nitro-N-(3-(phenylsulfonamido)phenyl)benzamide]	52
CCCOc1ccc(C(=O)Nc2cccc(NS(=O)(=O)c3ccc(C)c(C)c3)c2)cc1OC [I-348, N-(3-((3,4-dimethylphenyl)sulfonamido)phenyl)-3-methoxy-4-propoxybenzamide]	48
COc1cc(Cl)c(C)cc1NC(=O)c1ccccc1S(=O)(=O)N(C)c1ccccc1 [I-350, N-(4-chloro-2-methoxy-5-methylphenyl)-2-(N-methyl-N-phenylsulfamoyl)benzamide]	66
O=C(Nc1ccc(SC(F)F)cc1)c1ccccc1S(=O)(=O)N1CCCCC1 [I-353, N-(4-((difluoromethyl)thio)phenyl)-2-(piperidin-1-ylsulfonyl)benzamide]	44
O=C(Nc1ccc(OC(F)F)c(Cl)c1)c1ccccc1S(=O)(=O)N1CCCCC1 [I-354, N-(3-chloro-4-(difluoromethoxy)phenyl)-2-(piperidin-1-ylsulfonyl)benzamide]	43
CN(c1ccccc1)S(=O)(=O)c1ccccc1C(=O)Nc1ccc(Cl)cc1F [I-355, N-(4-chloro-2-fluorophenyl)-2-(N-methyl-N-phenylsulfamoyl)benzamide]	43
O=C(Nc1ccc(F)cc1)c1ccccc1NS(=O)(=O)c1cccc(C(F)(F)F)c1 [I-374, N-(4-fluorophenyl)-2-((3-(trifluoromethyl)phenyl)sulfonamido) benzamide]	48
O=C(Nc1ccc(OC(F)F)cc1)c1ccccc1NS(=O)(=O)c1ccc(F)cc1 [I-376, N-(4-(difluoromethoxy)phenyl)-2-((4-fluorophenyl)sulfonamido)benzamide]	35
O=C(Nc1ccc(Cl)c(S(=O)(=O)N2CCOCC2)c1)c1ccc(S(=O)(=O)Nc2cccc(C(F)(F)F)c2)cc1 [I-386, N-(4-chloro-3-(morpholinosulfonyl)phenyl)-4-(N-(3-(trifluoromethyl)phenyl)sulfamoyl)benzamide]	65
Cc1ccc(NC(=O)c2ccc(S(=O)(=O)Nc3ccc(Cl)cc3)cc2)cc1S(=O)(=O)N(C)C [I-390, 4-(N-(4-chlorophenyl)sulfamoyl)-N-(3-(N,N-dimethylsulfamoyl)-4-methylphenyl)benzamide]	62
Cc1ccc(NS(=O)(=O)c2ccc(C(=O)N3c4ccccc4CC3C)cc2)cc1 (stereo not drawn) [I-391, 4-(2-methylindoline-1-carbonyl)-N-(p-tolyl)benzenesulfonamide]	62

More lines, now with the values ahead:

% Inhibition of Apyrase [%]	Compound
65	COc1ccc(CC(=O)Nc2cccc(S(=O)(=O)Nc3ccc(Br)cc3)c2)cc1F [I-330, N-(3-(N-(4-bromophenyl)sulfamoyl)phenyl)-2-(3-fluoro-4-methoxyphenyl)acetamide]
64	COc1ccccc1C(=O)Nc1cccc(S(=O)(=O)Nc2ccc(Br)cc2)c1 [I-331, N-(3-(N-(4-bromophenyl)sulfamoyl)phenyl)-2-methoxybenzamide]
60	N#Cc1ccc(C(=O)Nc2cccc(S(=O)(=O)Nc3ccc(Br)cc3)c2)cc1 [I-332, N-(3-(N-(4-bromophenyl)sulfamoyl)phenyl)-4-cyanobenzamide]
40	C[S+]([O-])c1ccc(C(=O)Nc2cccc(S(=O)(=O)Nc3ccc(Br)cc3)c2)cc1 (stereo not drawn) [I-334, N-(3-(N-(4-bromophenyl)sulfamoyl)phenyl)-4-(methylsulfinyl)benzamide]
69	COc1ccc(Br)c(C(=O)Nc2cccc(NS(=O)(=O)c3ccc(C)c(C)c3)c2)c1 [I-338, 2-bromo-N-(3-((3,4-dimethylphenyl)sulfonamido)phenyl)-5-methoxybenzamide]
69	COc1cc(C(=O)Nc2cccc(NS(=O)(=O)c3ccc(C)c(C)c3)c2)cc2c1OCCO2 [I-339, N-(3-((3,4-dimethylphenyl)sulfonamido)phenyl)-8-methoxy-2,3-dihydrobenzo[b][1,4]dioxine-6-carboxamide]
64	COc1ccccc1C(=O)Nc1cccc(NS(=O)(=O)c2ccc(C)c(C)c2)c1 [I-341, N-(3-((3,4-dimethylphenyl)sulfonamido)phenyl)-2-methoxybenzamide]
59	O=C(Nc1cccc(NS(=O)(=O)c2ccc(Cl)cc2)c1)c1ccc(F)cc1F [I-343, N-(3-((4-chlorophenyl)sulfonamido)phenyl)-2,4-difluorobenzamide]
53	Cc1ccc(S(C)(=O)=O)cc1C(=O)Nc1cccc(NS(=O)(=O)c2ccc(Cl)cc2)c1 [I-346, N-(3-((4-chlorophenyl)sulfonamido)phenyl)-2-methyl-5-(methylsulfonyl)benzamide]
53	CN(c1ccccc1)S(=O)(=O)c1ccccc1C(=O)Nc1ccc2c(c1)OCO2 [I-351, N-(benzo[d][1,3]dioxol-5-yl)-2-(N-methyl-N-phenylsulfamoyl)benzamide]
48	C#Cc1cccc(NC(=O)c2ccccc2S(=O)(=O)N(C)c2ccccc2)c1 [I-352, N-(3-ethynylphenyl)-2-(N-methyl-N-phenylsulfamoyl)benzamide]
10	O=C(Nc1cccc(C(F)(F)F)c1)c1ccccc1S(=O)(=O)N1CCCCC1 [I-356, 2-(piperidin-1-ylsulfonyl)-N-(3-(trifluoromethyl)phenyl)benzamide]
71	O=C(Nc1ccc(S(=O)(=O)N2CCCC2)cc1)c1ccccc1NS(=O)(=O)c1cccc(C(F)(F)F)c1 [I-373, N-(4-(pyrrolidin-1-ylsulfonyl)phenyl)-2-((3-(trifluoromethyl)phenyl)sulfonamido) benzamide]
43	O=C(c1ccccc1NS(=O)(=O)c1cccc(C(F)(F)F)c1)N1CCc2ccccc21 [I-375, N-(2-(indoline-1-carbonyl)phenyl)-3-(trifluoromethyl)benzenesulfonamide]
20	O=C(Nc1ccccc1)c1ccccc1NS(=O)(=O)c1cccc(C(F)(F)F)c1 [I-377, N-phenyl-2-((3-(trifluoromethyl)phenyl)sulfonamido) benzamide]
73	O=C(Nc1ccc(F)cc1Cl)c1ccc(S(=O)(=O)Nc2ccc(SC(F)F)cc2)cc1 [I-380, N-(2-chloro-4-fluorophenyl)-4-(N-(4-((difluoromethyl)thio)phenyl)sulfamoyl) benzamide]
72	CC1Cc2ccccc2N1C(=O)c1ccc(S(=O)(=O)Nc2ccccc2)cc1 (stereo not drawn) [I-381, 4-(2-methylindoline-1-carbonyl)-N-phenylbenzenesulfonamide]
69	COc1ccc([N+](=O)[O-])cc1NS(=O)(=O)c1ccc(C(=O)Nc2ccc(Cl)cc2)cc1 [I-382, N-(4-chlorophenyl)-4-(N-(2-methoxy-5-nitrophenyl)sulfamoyl)benzamide]
66	O=C(Nc1ccccc1OC(F)F)c1ccc(S(=O)(=O)Nc2ccccc2F)cc1 [I-383, N-(2-(difluoromethoxy)phenyl)-4-(N-(2-fluorophenyl)sulfamoyl)benzamide]
66	Cc1ccc(NS(=O)(=O)c2ccc(C(=O)Nc3cccc(C#N)c3)cc2)cc1C [I-384, N-(3-cyanophenyl)-4-(N-(3,4-dimethylphenyl)sulfamoyl)benzamide]
63	O=C(Nc1ccc2[nH]nnc2c1)c1ccc(S(=O)(=O)Nc2ccc(Cl)cc2)cc1 [I-389, N-(1H-benzo[d][1,2,3]triazol-5-yl)-4-(N-(4-chlorophenyl)sulfamoyl)benzamide]
57	O=C(Nc1cccc(S(=O)(=O)N2CCOCC2)c1)c1ccc(S(=O)(=O)Nc2ccc(Cl)cc2)cc1 [I-393, 4-(N-(4-chlorophenyl)sulfamoyl)-N-(3-(morpholinosulfonyl)phenyl)benzamide]
54	Cc1ccc(NS(=O)(=O)c2ccc(C(=O)Nc3ccccc3C)cc2)cc1 [I-394, N-(o-tolyl)-4-(N-(p-tolyl)sulfamoyl)benzamide]
